Laboratory results published in ChEMBL document CHEMBL2021863, “Design and synthesis of new 4-pyrazolin-3-yl-1,2,3-triazoles and 1,2,3-triazol-4-yl-pyrazolin-1-ylthiazoles as potential antimicrobial agents” (2012).
In brackets after ≈: the same amount, converted by molar mass.

Columns and labels:
Assay type in all cases: functional
[1] = tested on: Staphylococcus aureus; experiment: Antimicrobial activity against Staphylococcus aureus ATCC 29213 at 100 ug/ml after 24 hrs by agar well diffusion assay; settings: ATCC 29213, 24 h, read-out: DIZ
[2] = tested on: Bacillus subtilis; experiment: Antimicrobial activity against Bacillus subtilis ATCC 6633 at 100 ug/ml after 24 hrs by agar well diffusion assay; settings: ATCC 6633, 24 h, read-out: DIZ
[3] = tested on: Micrococcus luteus; experiment: Antimicrobial activity against Sarcina lutea at 100 ug/ml after 24 hrs by agar well diffusion assay; settings: read-out: DIZ
[4] = tested on: Klebsiella pneumoniae; experiment: Antimicrobial activity against Klebsiella pneumoniae ATCC 13883 at 100 ug/ml after 24 hrs by agar well diffusion assay; settings: ATCC 13883, 24 h, read-out: DIZ
[5] = tested on: Pseudomonas aeruginosa; experiment: Antimicrobial activity against Pseudomonas aeruginosa ATCC 27953 at 100 ug/ml after 24 hrs by agar well diffusion assay; settings: ATCC 27953, 24 h, read-out: DIZ
[6] = tested on: Escherichia coli; experiment: Antimicrobial activity against Escherichia coli ATCC 25922 at 100 ug/ml after 24 hrs by agar well diffusion assay; settings: ATCC 25922, 24 h, read-out: DIZ
[7] = tested on: Saccharomyces cerevisiae; experiment: Antifungal activity against Saccharomyces cerevisiae at 100 ug/ml after 24 hrs by agar well diffusion assay; settings: read-out: DIZ
[8] = tested on: Candida albicans; experiment: Antifungal activity against Candida albicans NRRL Y-477 at 100 ug/ml after 24 hrs by agar well diffusion assay; settings: NRRL Y-477, 24 h, read-out: DIZ
[9] = tested on: Staphylococcus aureus; experiment: Antimicrobial activity against Staphylococcus aureus ATCC 29213 after 24 hrs by two-fold serial dilution method; settings: ATCC 29213, 24 h
[10] = tested on: Bacillus subtilis; experiment: Antimicrobial activity against Bacillus subtilis ATCC 6633 after 24 hrs by two-fold serial dilution method; settings: ATCC 6633, 24 h
[11] = tested on: Micrococcus luteus; experiment: Antimicrobial activity against Sarcina lutea after 24 hrs by two-fold serial dilution method
[12] = tested on: Klebsiella pneumoniae; experiment: Antimicrobial activity against Klebsiella pneumoniae ATCC 13883 after 24 hrs by two-fold serial dilution method; settings: ATCC 13883, 24 h
[13] = tested on: Pseudomonas aeruginosa; experiment: Antimicrobial activity against Pseudomonas aeruginosa ATCC 27953 after 24 hrs by two-fold serial dilution method; settings: ATCC 27953, 24 h
[14] = tested on: Escherichia coli; experiment: Antimicrobial activity against Escherichia coli ATCC 25922 after 24 hrs by two-fold serial dilution method; settings: ATCC 25922, 24 h
[15] = tested on: Saccharomyces cerevisiae; experiment: Antifungal activity against Saccharomyces cerevisiae by two-fold serial dilution method
[16] = tested on: Candida albicans; experiment: Antifungal activity against Candida albicans NRRL Y-477 by two-fold serial dilution method
[17] = tested on: Priestia megaterium; experiment: Antimicrobial activity against Bacillus megaterium ATCC 9885 at 100 ug/ml after 24 hrs by agar well diffusion assay; settings: ATCC 9885, 24 h, read-out: DIZ
[18] = tested on: Priestia megaterium; experiment: Antimicrobial activity against Bacillus megaterium ATCC 9885 after 24 hrs by two-fold serial dilution method; settings: ATCC 9885, 24 h

Row | SMILES | MIC [9] [µg/mL] | MIC [10] [µg/mL] | MIC [11] [µg/mL] | MIC [12] [µg/mL] | MIC [13] [µg/mL] | MIC [14] [µg/mL] | MIC [15] [µg/mL] | MIC [16] [µg/mL] | MIC [18] [µg/mL] | zone of inhibition at 100 µg/mL [1] [mm] | zone of inhibition at 100 µg/mL [2] [mm] | zone of inhibition at 100 µg/mL [3] [mm] | zone of inhibition at 100 µg/mL [4] [mm] | zone of inhibition at 100 µg/mL [5] [mm] | zone of inhibition at 100 µg/mL [6] [mm] | zone of inhibition at 100 µg/mL [7] [mm] | zone of inhibition at 100 µg/mL [8] [mm] | zone of inhibition at 100 µg/mL [17] [mm]
1 | Cc1ccc(-n2nnc(C3=NN(c4nc(-c5ccc(Cl)cc5)cs4)C(c4ccc(F)cc4)C3)c2C)cc1 (centres undefined) | 8.25 (≈ 15.6 µM) | 8.25 (≈ 15.6 µM) | 66 (≈ 125 µM) | 16.5 (≈ 31.2 µM) | 16.5 (≈ 31.2 µM) | 33 (≈ 62.4 µM) | 16.5 (≈ 31.2 µM) | 16.5 (≈ 31.2 µM) | – | 28 | 30 | 22 | 28 | 24 | 29 | 28 | 25 | –
2 | Cc1ccc(-n2nnc(C3=NN(c4nc(-c5ccc(Br)cc5)cs4)C(c4ccc(F)cc4)C3)c2C)cc1 (centres undefined) | 8.25 (≈ 14.4 µM) | 33 (≈ 57.5 µM) | 66 (≈ 115 µM) | 16.5 (≈ 28.8 µM) | – | 16.5 (≈ 28.8 µM) | 8.25 (≈ 14.4 µM) | 8.25 (≈ 14.4 µM) | 33 (≈ 57.5 µM) | 30 | 26 | 22 | 24 | – | 22 | 30 | 30 | 22
3 | Cc1ccc(-n2nnc(C3=NN(C4=NC(=O)CS4)C(c4ccc(F)cc4)C3)c2C)cc1 (centres undefined) | – | – | 132 (≈ 304 µM) | – | 33 (≈ 75.9 µM) | 8.25 (≈ 19 µM) | 66 (≈ 152 µM) | 132 (≈ 304 µM) | 8.25 (≈ 19 µM) | – | – | 16 | – | 20 | 28 | 18 | 16 | 30
4 | Cc1ccc(-n2nnc(C(=O)/C=C/c3ccc(F)cc3)c2C)cc1 | 16.5 (≈ 51.3 µM) | 16.5 (≈ 51.3 µM) | 132 (≈ 411 µM) | 132 (≈ 411 µM) | 132 (≈ 411 µM) | – | 16.5 (≈ 51.3 µM) | 16.5 (≈ 51.3 µM) | 16.5 (≈ 51.3 µM) | 20 | 26 | 16 | 16 | 16 | – | 23 | 22 | 24

Second part, led by results:

Row | MIC [9] [µg/mL] | MIC [10] [µg/mL] | MIC [11] [µg/mL] | MIC [12] [µg/mL] | MIC [13] [µg/mL] | MIC [14] [µg/mL] | MIC [15] [µg/mL] | MIC [16] [µg/mL] | MIC [18] [µg/mL] | SMILES | zone of inhibition at 100 µg/mL [1] [mm] | zone of inhibition at 100 µg/mL [2] [mm] | zone of inhibition at 100 µg/mL [3] [mm] | zone of inhibition at 100 µg/mL [4] [mm] | zone of inhibition at 100 µg/mL [5] [mm] | zone of inhibition at 100 µg/mL [6] [mm] | zone of inhibition at 100 µg/mL [7] [mm] | zone of inhibition at 100 µg/mL [8] [mm] | zone of inhibition at 100 µg/mL [17] [mm]
5 | 16.5 (≈ 54.4 µM) | 33 (≈ 109 µM) | 16.5 (≈ 54.4 µM) | 132 (≈ 435 µM) | 8.25 (≈ 27.2 µM) | 8.25 (≈ 27.2 µM) | 66 (≈ 218 µM) | 16.5 (≈ 54.4 µM) | – | Cc1ccc(-n2nnc(C(=O)/C=C/c3ccccc3)c2C)cc1 | 22 | 26 | 26 | 16 | 28 | 32 | 22 | 24 | –
6 | 16.5 (≈ 50.2 µM) | 8.25 (≈ 25.1 µM) | 16.5 (≈ 50.2 µM) | 16.5 (≈ 50.2 µM) | 8.25 (≈ 25.1 µM) | 132 (≈ 402 µM) | 8.25 (≈ 25.1 µM) | 16.5 (≈ 50.2 µM) | – | Cc1ccc(-n2nnc(C(=O)/C=C/c3ccc(C#N)cc3)c2C)cc1 | 23 | 28 | 24 | 24 | 26 | 16 | 30 | 24 | –
7 | 132 (≈ 342 µM) | 33 (≈ 85.4 µM) | 33 (≈ 85.4 µM) | – | 132 (≈ 342 µM) | 8.25 (≈ 21.3 µM) | 66 (≈ 171 µM) | 16.5 (≈ 42.7 µM) | 33 (≈ 85.4 µM) | Cc1ccc(-n2nnc(C(=O)/C=C/c3ccc(N4CCCCC4)cc3)c2C)cc1 | 16 | 18 | 28 | – | 16 | 28 | 20 | 18 | 20
8 | 8.25 (≈ 26 µM) | 8.25 (≈ 26 µM) | 16.5 (≈ 52 µM) | – | 8.25 (≈ 26 µM) | 132 (≈ 416 µM) | 8.25 (≈ 26 µM) | 8.25 (≈ 26 µM) | 132 (≈ 416 µM) | Cc1ccc(-n2nnc(C3=NNC(c4ccccc4)C3)c2C)cc1 (centres undefined) | 34 | 32 | 30 | – | 28 | 16 | 28 | 28 | 16
